Consider 16 compounds from patent US8017612B2, “Piperazine compound and use thereof as a HCV polymerase inhibitor” (priority 2006, dated 2011).

Assay [1] has as its target T1, HCV polymerase (NS5B) type 1b (Hepatitis C virus genotype 1b, UniProt P26663).
T1 construct: a region encoding NS5B (J Virol 1991 March, 65(3), 1105-13, 544 amino acids after deletion of 47 amino acids on the C-terminal); 6xHis (C); made in house; host or cells: Escherichia coli
The assay can be described thus: Assay of enzyme (HCV polymerase) inhibitory activity, type 1b enzyme. It counts as biochemical, HCV BK strain (type 1b). Particulars: HCV polymerase inhibitory activity IC50, 1b, type 1b enzyme. In a few lines: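 Polymerase activity was followed as radiolabelled UTP incorporation by E. coli-expressed, His-tagged NS5B of HCV type 1b lacking its last 47 residues. Conditions: 2 μM UTP, 50 μM other NTPs, Mg2+ buffer at pH 7.5, 25 °C for 60 min. Inhibition relative to compound-free reactions gave IC50.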

The target in assay [2] is T2, HCV polymerase (NS5B) type 1a (Hepatitis C virus genotype 1a, UniProt P26664).
T2 construct: made in house; host or cells: Escherichia coli (by the 'similar method' of the 1b enzyme)
The assay can be described thus: Assay of enzyme (HCV polymerase) inhibitory activity, type 1a enzyme. The format is biochemical, HCV type 1a (cloned from the blood of patients). The settings on record: HCV polymerase inhibitory activity IC50, 1a, type 1a enzyme. In a few lines:
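IC50 values derive from radioactivity of newly synthesized RNA with versus without test compound. The enzyme was C-terminally truncated type 1a NS5B, 1.5 μg/ml, run 60 min at 25° C with 3H-UTP-labelled nucleotides.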

For `CCCc1ccc(CNC(=O)[C@H]2CN(c3nc4c(C(=O)OCC)n[nH]c(=O)c4s3)CCN2S(=O)(=O)c2ccc(CC)cc2)cc1` [Example 862, 2-[(R)-4-(4-ethyl-benzenesulfonyl)-3-(4-propyl-benzylcarbamoyl)-piperazin-1-yl]-7-oxo-6,7-dihydro-thiazolo[4,5-d]pyridazine-4-carboxylic acid ethyl ester], the IC50 in assay [1] and in assay [2] was below 100 nM each time.

For `CCCc1ccc(CNC(=O)[C@H]2CN(c3nc4c(C(=O)O)n[nH]c(=O)c4s3)CCN2S(=O)(=O)c2ccc(CC)cc2)cc1` [Example 863, 2-[(R)-4-(4-ethyl-benzenesulfonyl)-3-(4-propyl-benzylcarbamoyl)-piperazin-1-yl]-7-oxo-6,7-dihydro-thiazolo[4,5-d]pyridazine-4-carboxylic acid], the IC50 in assay [1] and in assay [2] was below 100 nM each time.

Consider `O=C(NCc1ccc(OC(F)(F)F)cc1)[C@H]1CN(c2nc3cn[nH]c(=O)c3s2)CCN1S(=O)(=O)c1ccc(F)cc1` [Example 864, (R)-1-(4-fluoro-benzenesulfonyl)-4-(7-oxo-6,7-dihydro-thiazolo[4,5-d]pyridazin-2-yl)-piperazine-2-carboxylic acid 4-trifluoromethoxy-benzylamide], for which the half-maximal inhibitory concentration (IC50) – broadly, the midpoint of a concentration-inhibition curve – is below 100 nM in assay [1] and 100 to 1000 nM in assay [2].

Turning to `CNC(=O)c1cncc2ncc(N3CCN(S(=O)(=O)c4ccc(OC(F)(F)F)cc4)[C@@H](C(=O)NCc4ccc(OC(F)(F)F)cc4)C3)nc12` [Example 865, 2-[(R)-4-(4-trifluoromethoxy-benzenesulfonyl)-3-(4-trifluoromethoxy-benzylcarbamoyl)-piperazin-1-yl]-pyrido[3,4-b]pyrazine-8-carboxylic acid methylamide], the IC50 in assay [1] and in assay [2] was below 100 nM in each case.

Regarding `CN(C)C(=O)c1cncc2ncc(N3CCN(S(=O)(=O)c4ccc(OC(F)(F)F)cc4)[C@@H](C(=O)NCc4ccc(OC(F)(F)F)cc4)C3)nc12` [Example 866, 2-[(R)-4-(4-trifluoromethoxy-benzenesulfonyl)-3-(4-trifluoromethoxy-benzylcarbamoyl)-piperazin-1-yl]-pyrido[3,4-b]pyrazine-8-carboxylic acid dimethylamide], the IC50 in assay [1] and in assay [2] was below 100 nM each time.

Turning to `O=C(NCC1CN(c2ccccc2)C1)[C@H]1CN(c2cnc3cncnc3n2)CCN1S(=O)(=O)c1ccc(OC(F)(F)F)cc1` [Example 867, (R)-4-pteridin-7-yl-1-(4-trifluoromethoxy-benzenesulfonyl)-piperazine-2-carboxylic acid (1-phenyl-azetidin-3-ylmethyl)-amide], the IC50 in assay [1] and in assay [2] was 100 to 1000 nM each time.

With `CCCc1ccc(CNC(=O)[C@H]2CN(c3nc(Cl)c(C(=O)O)s3)CCN2S(=O)(=O)c2ccc(CC)cc2)cc1` [Example 868, 4-chloro-2-[(R)-4-(4-ethyl-benzenesulfonyl)-3-(4-propyl-benzylcarbamoyl)-piperazin-1-yl]-thiazole-5-carboxylic acid], the IC50 in assay [1] and in assay [2] was below 100 nM throughout.

Take `O=C(NCc1ccc(OC(F)(F)F)cc1)[C@H]1CN(c2nc3cnnc(Cl)c3s2)CCN1S(=O)(=O)c1ccc(OC(F)(F)F)cc1` [Example 869, (R)-4-(7-chloro-thiazolo[4,5-d]pyridazin-2-yl)-1-(4-trifluoromethoxy-benzenesulfonyl)-piperazine-2-carboxylic acid 4-trifluoromethoxy-benzylamide]: the IC50 in assay [1] and in assay [2] was below 100 nM in each case.

Take `O=C(NCc1ccc(OC(F)(F)F)cc1)[C@H]1CN(c2nc3c(CO)n[nH]c(=O)c3s2)CCN1S(=O)(=O)c1ccc(OC(F)(F)F)cc1` [Example 870, (R)-4-(4-hydroxymethyl-7-oxo-6,7-dihydro-thiazolo[4,5-d]pyridazin-2-yl)-1-(4-trifluoromethoxy-benzenesulfonyl)-piperazine-2-carboxylic acid 4-trifluoromethoxy-benzylamide]: the IC50 in assay [1] and in assay [2] was below 100 nM in each case.

Turning to `CC(C)NC(=O)c1cncc2ncc(N3CCN(S(=O)(=O)c4ccc(OC(F)(F)F)cc4)[C@@H](C(=O)NCc4ccc(OC(F)(F)F)cc4)C3)nc12` [Example 871, 2-[(R)-4-(4-trifluoromethoxy-benzenesulfonyl)-3-(4-trifluoromethoxy-benzylcarbamoyl)-piperazin-1-yl]-pyrido[3,4-b]pyrazine-8-carboxylic acid isopropylamide], the IC50 in assay [1] and in assay [2] was below 100 nM throughout.

`N#Cc1cncc2ncc(N3CCN(S(=O)(=O)c4ccc(OC(F)(F)F)cc4)[C@@H](C(=O)NCc4ccc(OC(F)(F)F)cc4)C3)nc12` [Example 872, (R)-4-(8-cyano-pyrido[3,4-b]pyrazin-2-yl)-1-(4-trifluoromethoxy-benzenesulfonyl)-piperazine-2-carboxylic acid 4-trifluoromethoxy-benzylamide]: the IC50 in assay [1] and in assay [2] was below 100 nM in each case.

Turning to `O=C(NCc1ccc(OC(F)(F)F)cc1)[C@H]1CN(c2nc3cn[nH]c(=O)c3s2)CCN1S(=O)(=O)c1ccc(Cl)cc1` [Example 873, (R)-1-(4-chloro-benzenesulfonyl)-4-(7-oxo-6,7-dihydro-thiazolo[4,5-d]pyridazin-2-yl)-piperazine-2-carboxylic acid 4-trifluoromethoxy-benzylamide], the IC50 in assay [1] and in assay [2] was below 100 nM throughout.

Consider `O=C(O)c1n[nH]c(=O)c2sc(N3CCN(S(=O)(=O)c4ccc(OC(F)(F)F)cc4)[C@@H](C(=O)NCc4ccc(OC(F)(F)F)cc4)C3)nc12` [Example 874, 7-oxo-2-[(R)-4-(4-trifluoromethoxy-benzenesulfonyl)-3-(4-trifluoromethoxy-benzylcarbamoyl)-piperazin-1-yl]-6,7-dihydro-thiazolo[4,5-d]pyridazine-4-carboxylic acid], for which the IC50 in assay [1] and in assay [2] was below 100 nM each time.

As to `CNC(=O)c1n[nH]c(=O)c2sc(N3CCN(S(=O)(=O)c4ccc(OC(F)(F)F)cc4)[C@@H](C(=O)NCc4ccc(OC(F)(F)F)cc4)C3)nc12` [Example 875, 7-oxo-2-[(R)-4-(4-trifluoromethoxy-benzenesulfonyl)-3-(4-trifluoromethoxy-benzylcarbamoyl)-piperazin-1-yl]-6,7-dihydro-thiazolo[4,5-d]pyridazine-4-carboxylic acid methylamide], the IC50 in assay [1] and in assay [2] was below 100 nM in each case.

For the compound `NC(=O)c1n[nH]c(=O)c2sc(N3CCN(S(=O)(=O)c4ccc(OC(F)(F)F)cc4)[C@@H](C(=O)NCc4ccc(OC(F)(F)F)cc4)C3)nc12` [Example 876, 7-oxo-2-[(R)-4-(4-trifluoromethoxy-benzenesulfonyl)-3-(4-trifluoromethoxy-benzylcarbamoyl)-piperazin-1-yl]-6,7-dihydro-thiazolo[4,5-d]pyridazine-4-carboxylic acid amide], the 50% inhibitory concentration (IC50) in assay [1] and in assay [2] was below 100 nM in each case.

Consider `O=C(NCc1ccc(OC(F)(F)F)cc1)[C@H]1CN(c2nc3cn[nH]c(=O)c3s2)CCN1S(=O)(=O)c1ccc(C(F)(F)F)cc1` [Example 877, (R)-4-(7-oxo-6,7-dihydro-thiazolo[4,5-d]pyridazin-2-yl)-1-(4-trifluoromethyl-benzenesulfonyl)-piperazine-2-carboxylic acid 4-trifluoromethoxy-benzylamide], for which the IC50 in assay [1] and in assay [2] was below 100 nM in each case.
